Series [1] deals with Sprague-Dawley male rats. The series is described as follows: rCBV by MRI with MION contrast after MPH challenge in adulthood. It is filed as in vivo. As for the experimental part: MRI was conducted in two groups of animals (MPH-treated or VEH treated; n=7) at approximately 60 days old. Functional changes in rCBV were determined by drug-induced alterations following paramagnetic contrast agent […] iron oxide nanocolloid (MION) in anesthetized treated subjects (Chen et al., 2001). All experiments were performed at 2 T or 4.7 T on a GE Omega CSI instrument (GE, Fremont, Calif., USA) using a home-built surface coil for transmit-receive and immobilization of the head using a rigid plastic head holder. All VEH/MPH subjects were matched for scanner strength to control for any possible differences due to magnet strength (Mandeville et al., Magn. Reson. Med., 52:1272-1281 (2004)). […]
According to standard methods, 20 baseline images were collected, followed by a 10 mg/kg injection of MION (an iron particle-based contrast agent that produces long-lasting intravascular contrast for T2* contrast measures) and an additional 20 baseline images. […] Images were measured serially with a temporal resolution of 2 min.
All functional images within each condition were registered onto the same standard brain template to facilitate comparisons between the experimental groups. Registration parameters were determined for each functional scan using a single full-brain image set that is the average of all baseline time points prior to drug injection. […]

Series [2] deals with D2 dopamine receptor. As to the kind of experiment: D2 dopamine receptor binding in the striatum by quantitative autoradiography after juvenile methylphenidate. Type of series: in vivo, rats. To be noted: 40 days of age, postnatal day 20-35. As for the experimental part:
FIG. 7. In this study, rats were administered a dosage of 2 mg/kg methylphenidate either by osmotic minipump (continuous release) or twice daily by interperitoneal injection (intermittent) between the ages of postnatal day 20-35. D2 dopamine receptor binding was assessed in the striatum at 40 days of age using quantitative autoradiography (see Andersen et al., Synapse 37:167-169 (2000)).

For series [3] the following is noted: 0.5 mg/kg i.p., within 5 min, rats; cited from earlier work.

Structures can show the parent of a compound that is named as a salt.

Consider one compound from US20110224256A1, “T[…] THE TREATMENT OF PSYCHIATRIC DISORDERS” (priority 2008, published 2011).

For the compound `COC(=O)C(c1ccccc1)C1CCCCN1` (stereo not drawn) [MPH, d,l-Methylphenidate HCl], in series [1] (MPFCx, juvenile MPH 2 mg/kg twice daily P20-P35 vs VEH-treated, 2 mg/kg i.v. MPH challenge), the “rCBV change after MPH challenge in adulthood” value is “significantly increased”. For the same compound, the “enduring effects of juvenile exposure on rCBV” value in series [1] (dorsolateral PFCx or caudate putamen, juvenile MPH exposure) is listed as “no significant enduring effects”. Moreover, the D2 receptor density result in series [2] (2 mg/kg by osmotic minipump (continuous release)) was “but not when administered by continuous release”; in series [2] (2 mg/kg twice daily by intraperitoneal injection (intermittent)), “reduced significantly”. Further, in series [3], the plasma levels is 36 ng/mL.
